Test results: patent publication US4481194A, “Des-proline-des-glycine vasopressin antagonists” (SmithKline Beckman Corporation, priority 1984, dated 1984)
Numbered stars: 1 amine (or outer) side, 2 acyl side, 3 side chain; on linkers, the order of the positions; unused ones are H or OH. Bridge positions count the residues as written; N and C are the ends. Square brackets hold non-standard residues; d marks the D form. Peptide text beside a SMILES is read from it. X1 = O=C(CC1(S[*:2])CCCCC1)[*:1]; Abu = CC[C@H](N)C(=O)O

Legend:
hydropenic rat = assay: Hydropenic rat screen (anti-ADH activity in vivo); details: estimated dose of peptide delivered ip which reduces Uosm from hydropenic levels to 300 mOsmoles/kg H2O
Experimental: Antagonistic activity toward the natural antidiuretic hormone (anti-ADH activity) is determined, in vitro, in the medullary tissue of hog or human kidneys and, in vivo, in the hydropenic rat. The in vitro assay procedures for vasopressin stimulated adenylate cyclase activation or vasopression binding activity are described by F. Stassen et al., J. Pharmacology and Experimental Therapeutics, 223, 50-54 (1982).
The assay for anti-ADH activity is the hydropenic rat protocol is described below:
Food and water are removed from male rats approximately 18 hours prior to testing. Animals are housed 4 per metabolism cage. At 0 hour, the test compound is administered intraperitoneally to the test group and an equivalent volume of vehicle is administered to both control groups (fasted and non-fasted). Urine volume and osmolality are measured every hour for 4 hours. Test values are recorded as ml of urine excreted (cumulative), mEq/rat electrolyte excreted, mg/rat urea excreted, and osmolality in milli-Osmoles/kg H2 O. A tolerance test is used to determine significance. ED300 is defined as the dose of compound (μg/kg) required to lower urine osmolality to 300 m-Osmoles/kg.

[1] = molecular target: T1, vasopressin stimulated adenylate cyclase (Sus scrofa, UniProt P32307); assay: Vasopressin stimulated adenylate cyclase activity in kidney medullary membrane; type: biochemical; details: In Vitro (Pig); antagonism of vasopressin stimulated adenylate cyclase, medullary tissue
T1 construct: in the medullary tissue of hog or human kidneys; from tissue; host or cells: kidney medullary membranes (hog or human)
Experimental: In the test procedure for assay of adenylate cyclase activity, the amount of ^32 P/cAMP formed in the absence of medullary membrane is determined (blank). The blank value is subtracted from all experimental data. The compound is tested for its effect on basal adenylate cyclase activity and/or on vasopressin stimulated activity. Each determination is carried out in triplicate. The Ka value is derived from a Lineweaver-Burkeplot. Rel. Vmax =(Vmax drug/Vmax vasopressin)×100. Ki =I/[Ka'/Ka)-1] where I is the concentration of the antagonist, and Ka' and Ka are the concentrations of vasopressin required to give half maximal activity of adenylate cyclase in the presence and absence of antagonist, respectively.

[2] = molecular target: T2, vasopressin receptors [V2 -receptors] (Sus scrofa, UniProt P32307); assay: 3H-vasopressin binding assay, hog kidney membranes; details: In Vitro (Pig); competitive inhibition of 3H-vasopressin binding; read-out: BB
T2 construct: average KD value determined on 3 preparations of hog kidney membranes; from tissue; host or cells: hog kidney medullary membranes
T2 sequence (P32307 whole entry): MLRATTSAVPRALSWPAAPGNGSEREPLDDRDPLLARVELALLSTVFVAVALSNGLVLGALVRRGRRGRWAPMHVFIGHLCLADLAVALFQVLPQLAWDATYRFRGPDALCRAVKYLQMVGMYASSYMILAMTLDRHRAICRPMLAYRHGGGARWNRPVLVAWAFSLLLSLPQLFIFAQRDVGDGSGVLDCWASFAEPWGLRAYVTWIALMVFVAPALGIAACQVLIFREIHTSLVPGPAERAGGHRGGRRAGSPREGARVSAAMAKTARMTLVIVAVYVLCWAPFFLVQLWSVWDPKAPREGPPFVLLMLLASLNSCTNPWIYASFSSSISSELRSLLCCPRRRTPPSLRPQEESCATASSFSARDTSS
Experimental: In the test procedure for binding assays, the amount of ^3 H-vasopressin bound in the absence and in the presence of an excess of vasopressin (7.5×10^-6 M) is measured in triplicate. These values represent total and non-specific binding, respectively.

T1 sequence (P32307 whole entry): as above

Ki [1] [nM]	Ki [2] [nM]	SMILES	ED300 (hydropenic rat) [mg/kg]
6.2	–	CCOc1ccc(C[C@H]2NC(=O)CC3(CCCCC3)SSC[C@@H](C(=O)N[C@@H](CCCNC(=N)N)C(N)=O)NC(=O)[C@H](CC(N)=O)NC(=O)[C@H](CC)NC(=O)[C@H](Cc3ccccc3)NC2=O)cc1 [B, 1(mercapto-β,cyclopentamethylenepropionic acid)2-(O--ethylD-tyrosine)-4-aminobutyric acid7-desproline-8-arginine-9-desglycinevasopressin] ([dY](Et)F[Abu]NCR-NH2; linker N-5 via X1)	0.1218
2.5	9000	CCOc1ccc(C[C@H]2NC(=O)CC3(CCCCC3)SSC[C@@H](C(=O)N[C@@H](CCCNC(=N)N)C(N)=O)NC(=O)[C@H](CC(N)=O)NC(=O)[C@H](C(C)C)NC(=O)[C@H](Cc3ccccc3)NC2=O)cc1 [A] ([dY](Et)FVNCR-NH2; linker N-5 via X1)	–

SMILES	Ki [1] [nM]	Ki [2] [nM]	ED300 (hydropenic rat) [mg/kg]
CCOc1ccc(C[C@H]2NC(=O)CC3(CCCCC3)SSC[C@@H](C(=O)N3CCC[C@H]3C(=O)N[C@@H](CCCNC(=N)N)C(=O)NCC(N)=O)NC(=O)[C@H](CC(N)=O)NC(=O)[C@H](C(C)C)NC(=O)[C@H](Cc3ccccc3)NC2=O)cc1 [C, [mercapto-β,cyclopentamethylenepropionic acid)2-(O--ethylD-tyrosine)-4-valine-8-argininevasopressin, reference compound] ([dY](Et)FVNCPRG-NH2; linker N-5 via X1 (inferred); C-terminus assumed)	9.8	–	0.011
